Results from patent US8455475B2 (Gruenenthal GmbH, priority 2009, dated 2013).

Tests used:
[1] = target: T1, rat B1R (bradykinin receptor 1) (Rattus norvegicus, UniProt P97583); test: FLIPR Ca2+ assay (Fluo-4) on CHO K1 cells stably transfected with the B1R gene of the rat (rB1R cells): % inhibition at 10 μM / IC50, agonist Des-Arg9-bradykinin; assay type: cell-based; conditions: for inhibition at 10 µM: CHO-K1, rat B1R
T1 construct: expressed in transfected cells; host or cells: CHO K1 cells
T1 sequence (P97583 1-337): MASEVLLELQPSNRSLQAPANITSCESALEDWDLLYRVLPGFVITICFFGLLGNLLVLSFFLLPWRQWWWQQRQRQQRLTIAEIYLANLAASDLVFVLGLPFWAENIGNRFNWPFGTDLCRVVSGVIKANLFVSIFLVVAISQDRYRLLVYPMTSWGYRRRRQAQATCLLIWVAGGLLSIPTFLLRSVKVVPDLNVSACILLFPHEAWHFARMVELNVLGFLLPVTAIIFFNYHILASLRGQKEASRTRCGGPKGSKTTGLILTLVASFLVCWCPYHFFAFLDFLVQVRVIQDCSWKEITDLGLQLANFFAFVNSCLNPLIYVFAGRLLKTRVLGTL
In short: (§1)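 Peak fluorescence counts read on FLIPR (λex 488, λem 540 nm) after two additions: compound first, then agonist at EC80 after 10–20 min. Human line challenged with Lys-Des-Arg9-bradykinin, rat line with Des-Arg9-bradykinin. Suppression of Ca2+ inflow expressed as % of maximum inhibition.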

[2] = target: T2, human B1R (bradykinin receptor 1) (Homo sapiens, UniProt P46663); test: FLIPR Ca2+ assay (Fluo-4) on CHO K1 cells stably transfected with the human B1R gene (hB1R cells): % inhibition at 10 μM / IC50, agonist Lys-Des-Arg9-bradykinin; assay type: cell-based; conditions: for inhibition at 10 µM: CHO-K1, human B1R
T2 construct: expressed in transfected cells; host or cells: CHO K1 cells
T2 sequence (P46663 1-353): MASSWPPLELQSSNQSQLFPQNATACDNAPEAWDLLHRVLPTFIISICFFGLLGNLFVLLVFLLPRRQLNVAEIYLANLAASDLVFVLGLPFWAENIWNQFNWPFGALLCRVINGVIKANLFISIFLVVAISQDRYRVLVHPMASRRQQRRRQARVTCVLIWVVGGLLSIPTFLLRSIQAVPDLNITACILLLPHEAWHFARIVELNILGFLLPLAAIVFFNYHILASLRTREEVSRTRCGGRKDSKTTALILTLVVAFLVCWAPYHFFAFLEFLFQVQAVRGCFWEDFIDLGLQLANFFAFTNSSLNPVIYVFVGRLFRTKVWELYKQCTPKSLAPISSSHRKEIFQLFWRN
In short: as §1

Compound	inhibition at 10 µM [1] [%]	inhibition at 10 µM [2] [%]	% Inhibition (rat B1R) at 10 μM ([1]; rat B1R) [%]	% Inhibition (human B1R) at 10 μM ([2]; human B1R) [%]
Cc1cc2c(cc1C(=O)N1CCC3(CC1)CCN(c1ccncc1)C3)[C@H](NC(=O)c1ccccc1Cl)CC2 [Example H-59, 2-Chloro-N-[(1R)-5-methyl-6-(3-pyridin-4-yl-3,8-diazaspiro[4.5]decane-8-carbonyl)-2,3-dihydro-1H-inden-1-yl]-benzamide]	105	99	–	–
O=C(c1ccc2c(c1)CC[C@@H]2N1Cc2cccc(Cl)c2C1=O)N1CCC2(CCN(c3ccncc3)CC2)C1 [Example H-157]	98	100	–	–
O=C(NC1CCc2ccc(C(=O)N3CCC4(CC3)CCN(c3ccncc3)C4)cc21)c1ccc(Cl)cc1Cl (centres unmarked) [Ind_CC-044, 2,4-dichloro-N-[6-(2-pyridin-4-yl-2,8-diazaspiro[4.5]decane-8-carbonyl)-2,3-dihydro-1H-inden-1-yl]-benzamide]	100	97	–	–
O=C(N[C@@H]1CCCc2ccc(C(=O)N3CCC4(CC3)CCN(c3ccncc3)C4)cc21)c1ccccc1Cl [Example H-72]	104	100	–	–
CC1(C)Cc2ccc(C(=O)N3CCC4(CC3)CCN(c3ccncc3)CC4)cc2C1NS(=O)(=O)Cc1ccccc1C(F)(F)F (centres unmarked) [IND_CC-238, N-[2,2-Dimethyl-6-(9-pyridin-4-yl-3,9-diazaspiro[5.5]undecane-3-carbonyl)-1,3-dihydro-inden-1-yl]-1-[2-(trifluoromethyl)-phenyl]-methanesulfonic acid amide]	100	99	–	–
CN(C(=O)c1ccccc1Cl)C1CCc2ccc(C(=O)N3CCC4(CC3)CCN(c3cccnc3)CC4)cc21 (centres unmarked) [Ind_CC-107, 2-chloro-N-methyl-N-[6-(9-pyridin-3-yl-3,9-diazaspiro[5.5]undecane-3-carbonyl)-2,3-dihydro-1H-inden-1-yl]-benzamide]	100	78	–	–
O=C(N[C@@H]1CCc2ccc(C(=O)N3CC4(CCN(c5ccncc5)CC4)C3)cc21)c1ccccc1Cl [Example H-27, 2-chloro-N-[(1R)-6-(7-pyridin-4-yl-2,7-diazaspiro[3.5]nonane-2-carbonyl)-2,3-dihydro-1H-inden-1-yl]-benzamide]	102	100	–	–
O=C(/C=C/c1ccccc1Cl)NC1CCc2ccc(C(=O)N3CCC4(CC3)CCN(c3ccncc3)C4)cc21 (centres unmarked) [Ind_CC-046, (E)-3-(2-chlorophenyl)-N-[6-(2-pyridin-4-yl-2,8-diazaspiro[4.5]decane-8-carbonyl)-2,3-dihydro-1H-inden-1-yl]-acrylamide]	68	98	–	–
Cc1cccc(C)c1C(=O)NC1CCc2ccc(C(=O)N3CCC4(CC3)CCN(c3ccncc3)C4)cc21 (centres unmarked) [IND_CC-295, 2,6-Dimethyl-N-[6-(2-pyridin-4-yl-2,8-diazaspiro[4.5]decane-8-carbonyl)-2,3-dihydro-1H-inden-1-yl]-benzamide]	106	96	–	–
O=C(c1ccc2c(c1)C(NS(=O)(=O)Cc1ccccc1C(F)(F)F)CC2)N1CCC2(CCN(c3ccncc3)CC2)C1 (centres unmarked) [IND_CC-258, N-[6-(8-Pyridin-4-yl-2,8-diazaspiro[4.5]decane-2-carbonyl)-2,3-dihydro-1H-inden-1-yl]-1-[2-(trifluoromethyl)-phenyl]-methanesulfonic acid amide]	95	100	–	–
O=C(NC1CCc2ccc(C(=O)N3CCC4(CC3)CCN(c3ccncc3)CC4)cc21)c1cccc(Cl)c1Cl (centres unmarked) [IND_CC-266, 2,3-Dichloro-N-[6-(9-pyridin-4-yl-3,9-diazaspiro[5.5]undecane-3-carbonyl)-2,3-dihydro-1H-inden-1-yl]-benzamide]	106	98	–	–
O=C(N[C@@H]1CCc2ccc(C(=O)N3CCC4(CCCN(c5ccncc5)C4)CC3)cc21)c1ccccc1Cl [Example H-26, 2-chloro-N-[(1R)-6-(8-pyridin-4-yl-3,8-diazaspiro[5.5]undecane-3-carbonyl)-2,3-dihydro-1H-inden-1-yl]-benzamide]	101	46	–	–
O=C(NC1CCc2ccc(C(=O)N3CCC4(CC3)CCN(c3ccncc3)CC4)cc21)c1cc(Cl)ccc1C(F)(F)F (centres unmarked) [IND_CC-302, 5-Chloro-N-[6-(9-pyridin-4-yl-3,9-diazaspiro[5.5]undecane-3-carbonyl)-2,3-dihydro-1H-inden-1-yl]-2-(trifluoromethyl)-benzamide]	106	99	–	–
CC1(C)CC(NC(=O)Nc2ccc(Cl)c(Cl)c2)c2cc(C(=O)N3CCC4(CC3)CCN(c3ccncc3)CC4)ccc21 (centres unmarked) [Ind_CC-057]	–	–	80	35
COc1cc(C)c(C(=O)N[C@@H]2CCc3ccc(C(=O)N4CCC5(CCN(c6ccncc6)CC5)C4)cc32)cc1C [Example H-103, 4-Methoxy-2,5-dimethyl-N-[(1R)-6-(8-pyridin-4-yl-3,8-diazaspiro[4.5]decane-3-carbonyl)-2,3-dihydro-1H-inden-1-yl]-benzamide]	106	99	–	–
CC1(C)Cc2ccc(C(=O)N3CCC4(CC3)CCN(c3ccncc3)CC4)cc2C1NC(=O)c1cc(C(F)(F)F)ccc1Cl (centres unmarked) [IND_CC-219, 2-Chloro-N-[2,2-dimethyl-6-(9-pyridin-4-yl-3,9-diazaspiro[5.5]undecane-3-carbonyl)-1,3-dihydro-inden-1-yl]-5-(trifluoromethyl)-benzamide]	104	53	–	–
CC1(C)Cc2ccc(C(=O)N3CCC4(CC3)CCN(c3ccncc3)CC4)cc2C1NC(=O)c1c(Cl)cccc1Cl (centres unmarked) [IND_CC-287, 2,6-Dichloro-N-[2,2-dimethyl-6-(9-pyridin-4-yl-3,9-diazaspiro[5.5]undecane-3-carbonyl)-1,3-dihydro-inden-1-yl]-benzamide]	105	99	–	–
CN(C(=O)c1cc(Cl)ccc1C(F)(F)F)C1CCc2ccc(C(=O)N3CCC4(CC3)CCN(c3ccncc3)CC4)cc21 (centres unmarked) [IND_CC-301, 5-Chloro-N-methyl-N-[6-(9-pyridin-4-yl-3,9-diazaspiro[5.5]undecane-3-carbonyl)-2,3-dihydro-1H-inden-1-yl]-2-(trifluoromethyl)-benzamide]	107	94	–	–
O=C(N[C@@H]1CCCc2ccc(C(=O)N3CC4(CCN(c5ccncc5)CC4)C3)cc21)c1ccccc1Cl [Example H-71, 2-Chloro-N-[(1R)-7-(7-pyridin-4-yl-2,7-diazaspiro[3.5]nonane-2-carbonyl)-1,2,3,4-tetrahydro-naphthalen-1-yl]-benzamide]	103	100	–	–
CN(C(=O)c1cc(Cl)ccc1Cl)C1CCc2ccc(C(=O)N3CCC4(CC3)CCN(c3ccncc3)CC4)cc21 (centres unmarked) [IND_CC-200, 2,5-Dichloro-N-methyl-N-[6-(9-pyridin-4-yl-3,9-diazaspiro[5.5]undecane-3-carbonyl)-2,3-dihydro-1H-inden-1-yl]-benzamide]	102	100	–	–
O=C(c1ccc2c(c1)[C@H](NC(=O)C1(c3ccccc3Cl)CC1)CC2)N1CCC2(CCN(c3ccncc3)CC2)C1 [Example H-148, 1-(2-Chlorophenyl)-N-[(1R)-6-(8-pyridin-4-yl-3,8-diazaspiro[4.5]decane-3-carbonyl)-2,3-dihydro-1H-inden-1-yl]-cyclopropane-1-carboxylic acid amide]	101	100	–	–
N#Cc1cccc(CN2CCC3(CC2)CCN(C(=O)c2ccc4c(c2)C(NC(=O)c2ccccc2Cl)CC4)C3)c1 (centres unmarked) [IND_CC-562, 2-Chloro-N-[6-[8-[(3-cyano-phenyl)-methyl]-2,8-diazaspiro[4.5]decane-2-carbonyl]-2,3-dihydro-1H-inden-1-yl]-benzamide]	104	27	–	–
O=C(N[C@@H]1CCc2ccc(C(=O)N3CCC4(CCN(c5ccncc5)CC4)C3)cc21)c1cccc(Cl)c1Cl [Example H-94, 2,3-Dichloro-N-[(1R)-6-(8-pyridin-4-yl-3,8-diazaspiro[4.5]decane-3-carbonyl)-2,3-dihydro-1H-inden-1-yl]-benzamide]	98	100	–	–
O=C(c1ccc2c(c1)C(NS(=O)(=O)c1ccccc1Cl)CC2)N1CCC2(CC1)CCN(c1ccncc1)C2 (centres unmarked) [Ind_CC-049, 2-chloro-N-[6-(2-pyridin-4-yl-2,8-diazaspiro[4.5]decane-8-carbonyl)-2,3-dihydro-1H-inden-1-yl]-benzenesulfonic acid amide]	101	99	–	–
CC1(C)CC(NC(=O)c2cc(F)ccc2Cl)c2cc(C(=O)N3CCC4(CC3)CCN(c3ccncc3)CC4)ccc21 (centres unmarked) [IND_CC-252, 2-Chloro-N-[3,3-dimethyl-6-(3-pyridin-4-yl-3,9-diazaspiro[5.5]undecane-9-carbonyl)-1,2-dihydro-inden-1-yl]-5-fluoro-benzamide]	102	100	–	–
